In brackets after ≈: the same amount, converted by molar mass.
Assays:
Candida albicans [1] = assay: Ratio of MIC for Candida albicans MY1055 in presence of 10% mouse plasma to MIC for Candida albicans MY1055 in absence of mouse plasma; type: functional
Candida albicans [2] = assay: Antifungal activity against Candida albicans MY1055 assessed as growth inhibition after 24 hrs by liquid microdilution assay in presence of 10% mouse plasma; type: functional
[3] = Inhibition of Candida albicans MY1055 NADH:cytochrome bc1 reductase in presence of 40% mouse plasma; type: cell-free
Candida albicans [4] = assay: Ratio of IC50 for Candida albicans MY1055 NADH:cytochrome bc1 reductase in presence of 40% mouse plasma to IC50 for Candida albicans MY1055 NADH:cytochrome bc1 reductase in absence of mouse plasma
[5] = Inhibition of rat liver NADH:cytochrome bc1 reductase
[6] = Inhibition of Candida albicans MY1055 NADH:cytochrome bc1 reductase
Candida albicans [7] = assay: Antifungal activity against Candida albicans MY1055 assessed as growth inhibition after 24 hrs by liquid microdilution assay; type: functional; conditions: MY1055, 24 h

Compound | Ratio (Candida albicans [1]) | MIC (Candida albicans [2]) [µg/mL] | IC50 [3] [µg/mL] | Ratio IC50 (Candida albicans [4]) | IC50 [5] [µg/mL] | IC50 [6] [µg/mL] | MIC (Candida albicans [7]) [µg/mL]
C/C=C/[C@@H]1[C@H]2C[C@@H](C)CC[C@@H]2C(C)=C[C@H]1C(=O)c1c(O)c(-c2ccc(OC(=O)/C=C/c3cnc[nH]3)cc2)c[nH]c1=O | 16 | 1 | 0.15 | 43 | 0.008 (≈ 0.0144 µM) | 0.001 (≈ 0.00181 µM) | 0.031 (≈ 0.056 µM)
C/C=C/[C@@H]1[C@H]2C[C@@H](C)CC[C@@H]2C(C)=C[C@H]1C(=O)c1c(O)c(-c2ccc(O)cc2)cn(CCN(CC)CC)c1=O |  | > 1 | 5 | 250 | > 1 | 0.02 (≈ 0.0375 µM) | > 1
C/C=C/[C@@H]1[C@H]2C[C@@H](C)CC[C@@H]2C(C)=C[C@H]1C(=O)c1c(O)c(-c2ccc(OC(=O)c3ccsc3)cc2)c[nH]c1=O |  |  |  |  | > 1 | 0.005 (≈ 0.0092 µM) | 1 (≈ 1.84 µM)
C/C=C/[C@@H]1[C@H]2C[C@@H](C)CC[C@@H]2C(C)=C[C@H]1C(=O)c1c(O)c(-c2ccc(OC(=O)Cc3ccccc3)cc2)c[nH]c1=O |  |  |  |  | 1 (≈ 1.81 µM) | 0.0005 (≈ 0.000906 µM) | 0.25 (≈ 0.453 µM)
C/C=C/[C@@H]1[C@H]2C[C@@H](CO)CC[C@@H]2C(C)=C[C@H]1C(=O)c1c(O)c(-c2ccc(OC(=O)C3CC3)cc2)c[nH]c1=O |  |  |  |  | 0.008 (≈ 0.0155 µM) | 0.002 (≈ 0.00386 µM) | 0.25 (≈ 0.483 µM)
C/C=C/[C@@H]1[C@H]2C[C@@H](C)CC[C@@H]2C(C)=C[C@H]1C(=O)c1c(O)c(-c2ccc(OC(=O)Nc3ccc(Br)cc3)cc2)c[nH]c1=O |  |  |  |  | 1 (≈ 1.58 µM) | 0.2 (≈ 0.317 µM) | 5 (≈ 7.92 µM)
CC1O[C@H]1[C@@H]1[C@H]2C[C@@H](C)CC[C@@H]2[C@](C)(O)[C@H]2Oc3ncc(-c4ccc(O)cc4)c(O)c3C(=O)[C@@H]12 (stereo partly specified) |  |  |  |  | 1 (≈ 2.15 µM) | > 1 | > 5
C/C=C/[C@@H]1[C@H]2C[C@@H](C)CC[C@@H]2C(C)=C[C@H]1C(=O)c1c(O)c(-c2ccc(OC)cc2)c[nH]c1=O |  |  |  |  | 0.2 (≈ 0.447 µM) | 0.003 (≈ 0.0067 µM) | 0.25 (≈ 0.559 µM)
C/C=C/[C@@H]1[C@H]2C[C@@H](C)CC[C@@H]2C(C)=C[C@H]1C(=O)c1c(O)c(-c2ccc(OCC(N)=O)cc2)cn(CC(N)=O)c1=O |  |  |  |  | > 1 | 0.2 (≈ 0.365 µM) | > 1
C/C=C/[C@@H]1[C@H]2C[C@@H](C)CC[C@@H]2C(C)=C[C@H]1C(=O)c1c(O)c(-c2ccc(O)cc2)cn(CC#N)c1=O |  |  |  |  | 0.8 (≈ 1.69 µM) | 0.001 (≈ 0.00212 µM) | 0.062 (≈ 0.131 µM)
C/C=C/[C@@H]1[C@H]2C[C@@H](C)CC[C@@H]2C(C)=C[C@H]1C(=O)c1c(O)c(-c2ccc(OC(=O)CC)cc2)c[nH]c1=O |  |  |  |  | > 1.6 | 0.00081 (≈ 0.00165 µM) | 0.125 (≈ 0.255 µM)
C/C=C/[C@@H]1[C@H]2C[C@@H](CO)CC[C@@H]2C(C)=C[C@H]1C(=O)c1c(O)c(-c2ccc(O)cc2)c[nH]c1=O |  |  |  |  | 0.4 (≈ 0.89 µM) | 0.4 (≈ 0.89 µM) | 0.25 (≈ 0.556 µM)
C/C=C/[C@@H]1[C@H]2C[C@@H](C)CC[C@@H]2C(C)=C[C@H]1C(=O)c1c(O)c(-c2ccc(OCC#N)cc2)c[nH]c1=O |  |  |  |  | 1 (≈ 2.12 µM) | 0.006 (≈ 0.0127 µM) | 0.125 (≈ 0.265 µM)
C/C=C/[C@@H]1[C@H]2C[C@@H](C)CC[C@@H]2[C@](C)(I)[C@H]2Oc3ncc(-c4ccc(O)cc4)c(O)c3C(=O)[C@@H]12 |  |  |  |  | 1 (≈ 1.79 µM) | 1 (≈ 1.79 µM) | > 5
C/C=C/[C@@H]1[C@H]2C[C@@H](C)CC[C@@H]2[C@](C)(O)[C@H]2Oc3ncc(-c4ccc(O)cc4)c(O)c3C(=O)[C@@H]12 |  |  |  |  | 1 (≈ 2.22 µM) | > 1 | > 5
C/C=C/[C@@H]1[C@H]2C[C@@H](C)CC[C@@H]2C(C)=C[C@H]1C(=O)c1c(O)c(-c2ccc(OCC(=O)O)cc2)cn(CC(=O)O)c1=O |  |  |  |  | 1 (≈ 1.82 µM) | > 1 | > 5
C/C=C/[C@@H]1[C@H]2C[C@@H](C)CC[C@@H]2C(C)=C[C@H]1C(=O)c1c(O)c(-c2ccc(OC(=O)c3ccoc3)cc2)c[nH]c1=O |  |  |  |  | > 1 | 0.0105 (≈ 0.0199 µM) | 0.0625 (≈ 0.118 µM)
C/C=C/[C@@H]1[C@H]2C[C@@H](C)CC[C@@H]2C(C)=C[C@H]1C(=O)c1c(O)c(-c2ccc(OC(=O)CNC(=O)OCC3c4ccccc4-c4ccccc43)cc2)c[nH]c1=O |  |  |  |  | 1 (≈ 1.4 µM) | 0.006 (≈ 0.00842 µM) | 0.125 (≈ 0.175 µM)

Source: ChEMBL document CHEMBL2380203, “Structure-activity relationship of cytochrome bc1 reductase inhibitor broad spectrum antifungal ilicicolin H” (Bioorg Med Chem Lett, 2013)
